Here are results for 28 compounds from patent publication US20100137309A1, “FUNGICIDES PHENYL-PYRIMIDNYL-AMINO DERIVATIVES” (priority 2007, published 2010).

Structures are written as SMILES.

The first series relates to Sphaerotheca fuliginea. The experiment in a line: In vivo test on Sphaerotheca fuliginea (cucurbits powdery mildew), DMF/emulsifier preparation (Example B). The following applies: 500 ppm; young cucurbit plants sprayed preventively one day before inoculation; grading 7 days after contamination. How it is done: In Vivo Test on Sphaerotheca fuliginea (Cucurbits Powdery Mildew) To produce a suitable preparation of active compound, 1 part by weight of active compound is mixed with 49 parts by weight of solvent (N,N-dimethylformamide) and 1 part by weight of emulsifier (alkylarylpolyglycolether), and the concentrate is diluted with water to the desired concentration. To test for preventive activity, young cucurbit plants are sprayed with the preparation of active compound at the stated rate of application. One day after this treatment, the plants are inoculated with an aqueous spore suspension of Sphaerotheca fuliginea. […] Grading is carried out 7 days after the contamination, in comparison with the control plants. […] A16.
As for `COCCOC(=O)c1cc(-c2ccnc(Nc3cccc(OC)c3)n2)ccn1` [Compound A16], the good protection entry was “at least 70%”.

Test system in a further series: not listed separately
The series is described as follows: Log p of the compounds of Table A.
Settings: not given
Consider `O=C(NCCCN1CCCCCC1=O)c1cc(-c2ccnc(Nc3cccc(Cl)c3)n2)ccn1` [Compound A1, 4-{2-[(3-chlorophenyl)amino]pyrimidin-4-yl}-N-[3-(2-oxoazepan-1-yl)propyl]pyridine-2-carboxamide], for which the log partition coefficient (logP) (in general, a log measure of how a compound divides between an organic and an aqueous phase) worked out at 2.98.
On the same count and under the same terms, the value for `CC(C)CCNC(=O)c1cc(-c2ccnc(Nc3cccc(Cl)c3)n2)ccn1` [Compound A19, 4-{2-[(3-chlorophenyl)amino]pyrimidin-4-yl}-N-(3-methylbutyl)pyridine-2-carboxamide] was 4.7.

Still in this series, the particulars now being: Table A.
Consider `CC(CN(C)C)NC(=O)c1cc(-c2ccnc(Nc3cccc(Cl)c3)n2)ccn1` (stereo not shown) [Compound A38], for which the Log p turned out to be 1.81.
With `COCCCNC(=O)c1cc(-c2ccnc(Nc3cccc(Cl)c3)n2)ccn1` [Compound A39], the Log p is listed as 3.31.
Compound `O=C(NC1CCCC1)c1cc(-c2ccnc(Nc3cccc(Cl)c3)n2)ccn1` [Compound A40] yielded a Log p of 4.48.
The compound `CCC(CC)NC(=O)c1cc(-c2ccnc(Nc3cccc(Cl)c3)n2)ccn1` [Compound A44] gave a Log p of 4.72.
The compound `CCC(COC)NC(=O)c1cc(-c2ccnc(Nc3cccc(Cl)c3)n2)ccn1` (stereo not shown) [Compound A45] returned a Log p of 4.02.
With `CCC(C)NC(=O)c1cc(-c2ccnc(Nc3cccc(Cl)c3)n2)ccn1` (stereo not shown) [Compound A46], the Log p is 4.3.
Compound `O=C(NC1CCC1)c1cc(-c2ccnc(Nc3cccc(Cl)c3)n2)ccn1` [Compound A47] gave a Log p of 4.1.
`CCCNC(=O)c1cc(-c2ccnc(Nc3cccc(Cl)c3)n2)ccn1` [Compound A56]: the Log p was determined as 3.8.
`CC(C)NC(=O)c1cc(-c2ccnc(Nc3cccc(Cl)c3)n2)ccn1` [Compound A57] came in with a Log p of 3.83.
`CCCCNC(=O)c1cc(-c2ccnc(Nc3cccc(Cl)c3)n2)ccn1` [Compound A58] returned a Log p of 4.31.
With `CNC(=O)c1cc(-c2ccnc(Nc3cccc(Cl)c3)n2)ccn1` [Compound A59], the Log p came to 2.94.
With `O=C(NC1CCS(=O)(=O)C1)c1cc(-c2ccnc(Nc3cccc(Cl)c3)n2)ccn1` (stereo not shown) [Compound A60], the Log p came to 2.8.
Turning to `CCOC1CCC(NC(=O)c2cc(-c3ccnc(Nc4cccc(Cl)c4)n3)ccn2)CC1` (stereo not shown) [Compound A61], the Log p was found to be 4.54.

Test system in the next series: not listed separately
The series is described as follows: Log p of the compounds of Table A.
Settings: not given
The source holds these as a separate data set.
`CN(C)C(=O)c1cc(-c2ccnc(Nc3cccc(Cl)c3)n2)ccn1` [Compound A76, 4-{2-[(3-chlorophenyl)amino]pyrimidin-4-yl}-N,N-dimethylpyridine-2-carboxamide]: the log partition coefficient (logP) turned out to be 2.5.
`CCN(CC)C(=O)c1cc(-c2ccnc(Nc3cccc(Cl)c3)n2)ccn1` [Compound A77, 4-{2-[(3-chlorophenyl)amino]pyrimidin-4-yl}-N,N-diethylpyridine-2-carboxamide] had a lipophilicity (logP) of 3.19.
Still for that read-out and setting: to `CON=C(C)c1cc(-c2ccnc(Nc3cccc(Cl)c3)n2)ccn1` [Compound A93, N-(3-chlorophenyl)-4-{2-[-N-methoxyethanimidoyl]pyridin-4-yl}pyrimidin-2-amine] belongs 4.46.
`CC(=NNCCC#N)c1cc(-c2ccnc(Nc3cccc(Cl)c3)n2)ccn1` [Compound A108, 3-{2-[1-(4-{2-[(3-chlorophenyl)amino]pyrimidin-4-yl}pyridin-2-yl)ethylidene]hydrazinyl}propanenitrile] gave a logP of 2.44.
Turning to `CC(=O)c1cc(-c2ccnc(Nc3cccc(Cl)c3)n2)ccn1` [Compound A110, 1-(4-{2-[(3-chlorophenyl)amino]pyrimidin-4-yl}pyridin-2-yl)ethanone], the logP was found to be 3.5.

Test system in the next series: not listed separately
The experiment in a line: Log p of the compounds of Table A.
Settings: not given
The source holds these as a separate data set.
Turning to `COCCN(C)C(=O)c1cc(-c2ccnc(Nc3cc(F)ccc3F)n2)ccn1` [Compound A230], the Log p is recorded as 2.52.
On the same count and under the same terms, to `CCN(C)C(=O)c1cc(-c2ccnc(Nc3cc(Cl)ccc3F)n2)ccn1` [Compound A232] belongs 2.94; to `CCCN(CC)C(=O)c1cc(-c2ccnc(Nc3cc(Cl)ccc3F)n2)ccn1` [Compound A234], 3.69.
In turn, `CCCN(CC1CC1)C(=O)c1cc(-c2ccnc(Nc3cc(Cl)ccc3F)n2)ccn1` [Compound A242] came in with a Log p of 4.20.
In turn, `CCCCN(C)C(=O)c1cc(-c2ccnc(Nc3cccc(C(C)C)c3)n2)ccn1` [Compound A262] gave a Log p of 4.04.

Test system in a further series: not listed separately
The series is described as follows: Log p of the compounds of Table A.
Settings: not given
This is another data set of the same source.
Turning to `CC(C)N(C)C(=O)c1cc(-c2ccnc(Nc3ccc(N4CCCC4=O)cc3)n2)ccn1` [Compound A325], the Log p turned out to be 2.04.

Test system in another series: not listed separately
The series is described as follows: Log p determination of the compounds of Table A.
Settings: not given
With `CCN(CC)C(=S)c1cc(-c2ccnc(Nc3cccc(Cl)c3)n2)ccn1` [Compound A391, 4-{2-[(3-chlorophenyl)amino]pyrimidin-4-yl}-N,N-diethylpyridine-2-carbothioamide], the logP was 3.19.
